Common to all, as to assay type: biochemical
One assay has as its target T1, BdTIR (Brachypodium distachyon, UniProt I1GTC2).
T1 construct: gene BRADI_1g24377v3; TIR-only protein; N-terminal Strep II and C-terminal 6xHis tags (pET30a+), E. coli BL21(DE3); catalytic E127
T1 sequence (I1GTC2 1-224): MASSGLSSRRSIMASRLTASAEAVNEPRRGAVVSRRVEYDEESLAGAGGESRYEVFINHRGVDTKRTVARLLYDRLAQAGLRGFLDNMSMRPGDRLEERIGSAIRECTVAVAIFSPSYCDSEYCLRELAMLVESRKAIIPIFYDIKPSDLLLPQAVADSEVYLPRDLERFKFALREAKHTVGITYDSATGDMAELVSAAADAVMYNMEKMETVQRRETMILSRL
Nature of the assay: in vitro NADase assay on bead-bound protein, LC-MS. The conditions noted are these: […] NAD+, ~[…] C, […] h.

Another assay concerns the target T2, HopAM1 (Pseudomonas syringae group genomosp. 3, UniProt Q877R9).
T2 construct: gene hopAM1-1; TIR effector; N-terminal Strep II and C-terminal 6xHis tags (pET30a+), E. coli BL21(DE3)
Nature of the assay: in vitro NADase assay on bead-bound protein, LC-MS. The conditions noted are these: […] NAD+, ~[…] C, […] h.

A further assay has as its target T3, AbTIR (Acinetobacter baumannii, UniProt A0A009IHW8).
T3 construct: gene J512_3302; core TIR domain, residues 157-292; N-terminal Strep II and C-terminal 6xHis tags (pET30a+), E. coli BL21(DE3); catalytic E208
Nature of the assay: in vitro NADase assay on bead-bound protein, LC-MS. As to conditions: […] NAD+, ~[…] C, […] h.

In a further assay the target is T4, ThsA (Bacillus cereus, UniProt J8G6Z1).
T4 construct: SIR2-type NADase with C-terminal SLOG domain; in vitro preparation not described in main text
Nature of the assay: in vitro NAD+ consumption. The conditions noted are these: stimulated by NADase products of ThsB-Auto.

T3 sequence (A0A009IHW8 134-269): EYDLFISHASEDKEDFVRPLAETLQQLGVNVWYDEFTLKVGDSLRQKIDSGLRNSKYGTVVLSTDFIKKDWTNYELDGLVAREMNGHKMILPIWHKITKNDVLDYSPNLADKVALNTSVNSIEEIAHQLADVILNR
T2 sequence (Q877R9 whole entry): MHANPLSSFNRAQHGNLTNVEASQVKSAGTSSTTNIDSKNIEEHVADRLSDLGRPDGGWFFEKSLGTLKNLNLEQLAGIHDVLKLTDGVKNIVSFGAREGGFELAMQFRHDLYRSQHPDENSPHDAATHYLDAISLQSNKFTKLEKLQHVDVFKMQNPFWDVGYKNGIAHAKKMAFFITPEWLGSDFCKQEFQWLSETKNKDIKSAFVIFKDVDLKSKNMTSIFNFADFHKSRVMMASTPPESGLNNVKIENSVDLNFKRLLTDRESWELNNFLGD
T4 sequence (J8G6Z1 whole entry, the tested form may be a part): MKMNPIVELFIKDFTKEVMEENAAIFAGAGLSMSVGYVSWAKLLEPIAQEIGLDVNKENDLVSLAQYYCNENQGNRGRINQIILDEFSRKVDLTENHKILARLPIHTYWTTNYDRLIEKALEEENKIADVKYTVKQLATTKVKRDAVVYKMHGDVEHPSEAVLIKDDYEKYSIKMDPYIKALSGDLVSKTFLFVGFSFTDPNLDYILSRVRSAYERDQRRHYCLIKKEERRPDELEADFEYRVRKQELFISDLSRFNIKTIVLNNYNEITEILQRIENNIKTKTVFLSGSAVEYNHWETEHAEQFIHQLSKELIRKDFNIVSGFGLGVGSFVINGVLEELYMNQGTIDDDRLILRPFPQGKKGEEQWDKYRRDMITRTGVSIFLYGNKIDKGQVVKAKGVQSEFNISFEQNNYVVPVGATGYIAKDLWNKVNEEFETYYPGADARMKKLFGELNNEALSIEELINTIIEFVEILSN

As to `NC(=O)c1ccc[n+]([C@@H]2O[C@H](COP(=O)(O)OP(=O)(O)OC[C@H]3O[C@@H](n4cnc5c(N)ncnc54)[C@H](O)[C@@H]3O)[C@@H](O)[C@H]2O)c1` [NAD^+], the “in vitro NADase assay on bead-bound protein, LC-MS” value was “we compared the in vitro NADase products of ThsB-Auto, BdTIR, AbTIR, and HopAM1” at BdTIR; “we compared the in vitro NADase products of ThsB-Auto, BdTIR, AbTIR, and HopAM1” at HopAM1; “we compared the in vitro NADase products of ThsB-Auto, BdTIR, AbTIR, and HopAM1” at AbTIR. In addition, at ThsA, the “in vitro NAD+ consumption” value is “NADase products of ThsB-Auto could stimulate NAD^+ consumption by ThsA in vitro”.

The values above are taken from article PMC10022894, “Plant and prokaryotic TIR domains generate distinct cyclic ADPR NADase products” (Science Advances, 2023).
